Measured values as given in patent US20220296604A1, “INDOLE COMPOUNDS AS MODULATORS OF RAGE ACTIVITY AND USES THEREOF” (NEW YORK UNIVERSITY, priority 2019, published 2022).

target: T1, RAGE tail (Homo sapiens, UniProt Q15109); assay: RAGE tail fluorescence titration (fluorescence quenching), Kd determination; details: compound titrated into 100 nM solution of RAGE tail, NB = binding not detected
T1 construct: The cytoplasmic domain of RAGE, C terminal RAGE or ctRAGE (RAGE tail) is critical for RAGE-dependent signal transduction
T1 sequence (Q15109 364-404 limits assumed): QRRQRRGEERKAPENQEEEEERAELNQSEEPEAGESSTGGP
Procedure: Binding affinities of small molecules for either CT-RAGE or FH1 are determined by performing fluorescence titrations to generate binding isotherms and standard SPR experiments. […]
Compound D-IIIa was titrated into 100 nM solution of RAGE tail. Fluorescence quenching was used to determine binding. R^2 quality factor of the fitting was 0.94 (FIG. 1).
Compound D-IIIb was titrated into 100 nM solution of RAGE tail. Fluorescence quenching was used to determine binding. R^2 quality factor of the fitting was 0.97 (FIG. 2).
Compound D-IIIc was titrated into 100 nM solution of RAGE tail. Fluorescence quenching was used to determine binding. R^2 quality factor of the fitting was 0.98 (FIG. 3).
Compound D-IIId was titrated into 100 nM solution of RAGE tail. Fluorescence quenching was used to determine binding. R^2 quality factor of the fitting was 0.99 (FIG. 4).
Compound D-IIIe was titrated into 100 nM solution of RAGE tail. Fluorescence quenching was used to determine binding. R^2 quality factor of the fitting was 0.98 (FIG. 5).
Compound D-IIIi was titrated into 100 nM solution of RAGE tail. Fluorescence quenching was used to determine binding. R^2 quality factor of the fitting was 0.90 (FIG. 6).
Compound D-IIIk was titrated into 100 nM solution of RAGE tail. Fluorescence quenching was used to determine binding. R^2 quality factor of the fitting was 0.89 (FIG. 7).
Compound D-IIIq was titrated into 100 nM solution of RAGE tail. Fluorescence quenching was used to determine binding. R^2 quality factor of the fitting was 0.82 (FIG. 8).
Compound D-IIIv was titrated into 100 nM solution of RAGE tail. Fluorescence quenching was used to determine binding. R^2 quality factor of the fitting was 0.93 (FIG. 9).
Compound D-IIIw was titrated into 100 nM solution of RAGE tail. Fluorescence quenching was used to determine binding. R^2 quality factor of the fitting was 0.94 (FIG. 10).
Compound D-IVa was titrated into 100 nM solution of RAGE tail. Fluorescence quenching was used to determine binding. R^2 quality factor of the fitting was 0.94 (FIG. 11).
Compound D-IVb was titrated into 100 nM solution of RAGE tail. Fluorescence quenching was used to determine binding. R^2 quality factor of the fitting was 0.93 (FIG. 12).
Compound D-IVc was titrated into 100 nM solution of RAGE tail. Fluorescence quenching was used to determine binding. R^2 quality factor of the fitting was 0.92 (FIG. 13).
Compound D-IVd was titrated into 100 nM solution of RAGE tail. Fluorescence quenching was used to determine binding. R^2 quality factor of the fitting was 0.94 (FIG. 14).
Compound D-IVe was titrated into 100 nM solution of RAGE tail. Fluorescence quenching was used to determine binding. R^2 quality factor of the fitting was 0.93 (FIG. 15).
Compound D-IVf was titrated into 100 nM solution of RAGE tail. Fluorescence quenching was used to determine binding. R^2 quality factor of the fitting was 0.95 (FIG. 16).
Compound D-IVg was titrated into 100 nM solution of RAGE tail. Fluorescence quenching was used to determine binding. R^2 quality factor of the fitting was 0.89 (FIG. 17).
Compound D-IVh was titrated into 100 nM solution of RAGE tail. Fluorescence quenching was used to determine binding. R^2 quality factor of the fitting was 0.93 (FIG. 18).

Kd [nM]	Compound
55	Cc1c(C)n(CC(O)CN2CCOCC2)c2cc(F)ccc12 [Compound D-IIId]
7.7	Cc1c(CC(O)CN2CCCC(C(=O)O)C2)c2ccccc2n1C [Compound D-IVh]
9	CC(=O)NC(CN1CCOCC1)Cn1c(C)c(C)c2ccccc21 [Compound D-IIIc, N-(1-(2,3-dimethyl-1H-indol-1-yl)-3-morphohnopropan-2-yl)acetamide]
4.6	CC(=O)NC(CN1CCCC(C(=O)O)C1)Cn1c(C)c(C)c2ccccc21 [Compound D-IVf]
12	CC(=O)NC(CN1CCCC(C(N)=O)C1)Cn1c(C)c(C)c2ccccc21 [Compound D-IVg]
18	O=C(O)C1CCCN(CC(O)Cn2c3c(c4ccccc42)CCCC3)C1 [Compound D-IVc]
82	Cc1c(C)n(CC(O)CN2CCOCC2)c2ccc(F)cc12 [Compound D-IIIa, 1-(5-fluoro-2,3-dimethyl-1H-indol-1-yl)-3-morpholinopropan-2-ol]
62	Cc1c(C)n(CC(CN2CCOCC2)NC(=O)C(C)C)c2ccccc12 [Compound D-IIIk]
4	Cc1c(C)n(CC(C#N)CN2CCOCC2)c2ccccc12 [Compound D-IIIb]
12	Cc1c(C)n(CC(C#N)CN2CCCC(C(=O)O)C2)c2ccccc12 [Compound D-IVd]
11	NC(=O)C1CCCN(CC(O)Cn2c3c(c4ccccc42)CCCC3)C1 [Compound D-IVb]
72	OC(CN1CCCCC1)Cn1c2c(c3ccccc31)CCCC2 [Compound D-IVa]
2.6	Cc1c(C)n(CC(C#N)CN2CCCC(C(N)=O)C2)c2ccccc12 [Compound D-IVe]
9	CC(=O)NC(CN1CCOCC1)Cn1c(C)c(C)c2cc(F)ccc21 [Compound D-IIIi]
11	Cc1c(CC(O)CN2CCOCC2)c2ccccc2n1C(C)C [Compound D-IIIq]

Compound	Kd [nM]
Cc1c(CC(O)CN2CCOCC2)c2ccc(F)cc2n1C [Compound D-IIIv]	14
Cc1c(CC(O)CN2CCOCC2)c2ccccc2n1C [Compound D-IIIe, 1-(1,2-dimethyl-1H-indol-3-yl)-3-morpholinopropan-2-ol]	20
Cc1c(C)n(CC(CC#N)CN2CCOCC2)c2ccccc12 [Compound D-IIIw]	4.3
